Data set [1] has as its target T1, Protein kinase C eta type (Homo sapiens, UniProt P24723). As to the kind of experiment: Binding affinity to PKCeta in human HeLa cell lysates at 10 nM to 100 uM after 2 hrs by immunoprecipitation analysis.
Data set [2] has as its system HeLa. As to the kind of experiment: Drug uptake in human HeLa cells assessed as subcellular localization in endoplasmic reticulum at 10 uM after 6 hrs using blue-fluorescent IAF-tagged streptavidin staining by live cell microscopic analysis. Type of data set: ADME, cell-based.
For data set [3], the system named is HeLa. Nature of the data set: Drug uptake in human HeLa cells assessed as subcellular localization in endoplasmic reticulum at 10 uM after 6 hrs using blue-fluorescent IAF-tagged streptavidin staining by live cell microscopic analysis presence of glycyrrhetic acid. Type of data set: ADME, cell-based.
The target of data set [4] is T1, Protein kinase C eta type. As to the kind of experiment: Binding affinity to recombinant human PKCeta in after 2 hrs by microequilibrium dialysis assay. Background: In equilibrium dialysis free small molecules cross a membrane that holds back macromolecules.
A short description of data set [5]: Binding affinity to mouse IAF-labeled immunoglobulin G mAb by immunoaffinity fluorescent method.
Data set [6] relates to HeLa. Nature of the data set: Drug uptake in human HeLa cells assessed as subcellular localization in endoplasmic reticulum at 25 uM after 6 hrs by live cell microscopic analysis. Format: ADME, cell-based.

The structures appear in SMILES notation. Active and inactive are the calls of the source. The calls are words filed in the database; no cut-off is given here.

T1 sequence (P24723 whole entry): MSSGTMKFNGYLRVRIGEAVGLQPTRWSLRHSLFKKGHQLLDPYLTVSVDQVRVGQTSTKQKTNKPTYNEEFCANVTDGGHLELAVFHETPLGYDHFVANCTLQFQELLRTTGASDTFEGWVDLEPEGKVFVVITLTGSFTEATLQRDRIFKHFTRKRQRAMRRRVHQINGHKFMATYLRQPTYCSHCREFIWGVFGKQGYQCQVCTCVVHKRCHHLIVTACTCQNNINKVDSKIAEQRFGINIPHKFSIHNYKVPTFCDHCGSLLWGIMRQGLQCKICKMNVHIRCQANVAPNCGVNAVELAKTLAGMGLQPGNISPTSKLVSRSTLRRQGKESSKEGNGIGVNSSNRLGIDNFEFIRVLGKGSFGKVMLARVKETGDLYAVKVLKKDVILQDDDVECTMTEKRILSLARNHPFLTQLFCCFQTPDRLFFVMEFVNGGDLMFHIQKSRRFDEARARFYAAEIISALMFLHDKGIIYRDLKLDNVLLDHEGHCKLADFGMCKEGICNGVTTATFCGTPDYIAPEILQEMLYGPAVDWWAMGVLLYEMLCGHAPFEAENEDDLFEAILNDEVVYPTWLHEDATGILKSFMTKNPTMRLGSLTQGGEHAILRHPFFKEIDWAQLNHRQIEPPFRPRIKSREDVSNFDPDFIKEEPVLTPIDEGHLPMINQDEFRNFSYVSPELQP

Take `C#CCNC(=O)Cc1cc(=O)oc2cc(N(C)C)ccc12`: the result in data set [1] was inactive.
`CC1(C)[C@@H](O)CC[C@]2(C)[C@H]3C(=O)C=C4[C@@H]5C[C@@](C)(C(=O)NCCNC(=O)CCCC[C@@H]6SC[C@@H]7NC(=O)N[C@@H]76)CC[C@]5(C)CC[C@@]4(C)[C@]3(C)CC[C@@H]12`: in the data set with HeLa [2], the Drug uptake result was “Not Active”.
With `CN(C)c1ccc2c(CC(=O)NCCNC(=O)[C@@]3(C)CC[C@]4(C)CC[C@]5(C)C(=CC(=O)[C@@H]6[C@@]7(C)CC[C@H](O)C(C)(C)[C@@H]7CC[C@]65C)[C@@H]4C3)cc(=O)oc2c1`, the Drug uptake entry in the data set on HeLa [2] is given as “Active”; in the data set with HeLa [3], “Not Active”. In addition, the Kd (in general, a measure of binding affinity in units of concentration) is 640 nM in data set [4] and 540 nM in data set [5].
With `CC1(C)[C@@H](O)CC[C@]2(C)[C@H]3C(=O)C=C4[C@@H]5C[C@@](C)(C(=O)O)CC[C@]5(C)CC[C@@]4(C)[C@]3(C)CC[C@@H]12` [ENOXOLONE], in the data set on HeLa [6], the Drug uptake result is “Active”. In addition, the Kd in data set [4] amounted to 250 nM.
`CC1(C)[C@@H](O)CC[C@]2(C)[C@H]3C(=O)C=C4[C@@H]5C[C@@](C)(C(=O)NCCN=[N+]=[N-])CC[C@]5(C)CC[C@@]4(C)[C@]3(C)CC[C@@H]12`: the outcome in data set [1] was inactive.

The record behind these values is ChEMBL document CHEMBL1800035, “An optimized immunoaffinity fluorescent method for natural product target elucidation” (J Nat Prod, 2010).
